Results on three compounds are retold here after patent US6369101B1, “Therapeutic method to treat herpes virus infection” (Regents of the University of Minnesota, priority 1999, dated 2002).

The test system of series [1] is Daudi cells. Description: CC50 in Daudi cells (Table 3). It is filed as cell-based. As to conditions: Daudi cells, Epstein-Barr Virus section of Table 3.
Method: (§8) Raji is a Burkitt's lymphoma cell line containing 60 EBV genome/cell, and was the primary cell used for screening antiviral activity against EBV early antigen (EA) expression. Daudi is a low level producer that contains 152 EBV genome copies/cell. It spontaneously expresses EBV EA in 0.25-0.5% of the cells. It was used in follow-up studies to confirm activity. […] All cell lines were maintained in RPMI-1640 medium supplemented with 10% FCS, L-glutamine and 100 μg/ml gentamicin. The cultures were fed twice weekly and the cell concentration was adjusted to 3×10^5/ml. The cells were kept at 37° C. in humidified atmosphere with 5% CO2.
Series [2] deals with HSV-1 strain F. Description: CPE inhibition, HSV-1 strain F in HEp-2 cells. Note: key: +++ = Complete cytopathic effect; ++ = Moderate cytopathic effect; + = Minimum cytopathic effect; − = No cytopathic effect. To be noted: conc. per compound (ng/ml). It is filed as cell-based, herpes simplex virus type 1. From the text:
(§1) Human laryngeal epithelial carcinoma cells (HEp-2, ATCC, Rockville, Md.) were used for testing of antiviral compounds by cytopathic effect (CPE) inhibition and plaque reduction assay. Primary human foreskin fibroblast cells (HFF) obtained from Dr. E. R. Kern (Department of Pediatrics, University of Alabama Medical School, 309 Bevill Biomedical Research Building, 845 19th Street South, Birmingham, Ala., 35294-2170), were used for cytopathic effect (CPE) inhibition assay. HEp-2, African green monkey kidney cells (Vero, ATCC), HFF and primary rabbit kidney cells were used to determine the cytotoxic effect of compounds of formula I. These cells were propagated in Dulbeco's modified Eagle's medium (DMEM) (Sigma, USA) supplemented with 10% inactivated fetal calf serum (FCS), 25 mM HEPES, 0.2% sodium bicarbonate and 1% penicillin/-streptomycin at 37° C. in the presence of 5% CO2.
(§2) The antiviral activity of the test compounds was determined against HSV-1 strain F, HSV-2 strain G (ATCC), HSV-1 strain E-377 and HSV-2 strain MS (Dr. E. R. Kern, see above), CMV strain AD 169 (NIH), HCMV (NIH), MCMV (NIH), and VZV strain Ellen (NIH). Highly infective virus stocks of HSV-1 and HSV-2 were prepared by infecting a confluent monolayer of HEp-2 (ATCC) or HFF in 150 cm^2 plastic tissue culture flasks (Falcon, USA) at a multiplicity of infection of 0.5 in DMEM supplemented with 10% inactivated fetal calf serum and 1% penicillin/streptomycin at 37° C. in the presence of 5% CO2. The infected cells were disrupted through three freeze/thaw cycles, and viruses were clarified from large cell debris by low speed centrifugation at 3000 rpm for 10 minutes. The virus suspension was separated, aliquoted and stored at −80° C. until assayed or used for animal infection. The stock HSV-1 (E377) and HSV-2 (MS strain) contained 3.5×10^8 and 1.1×10^7 pfu/ml respectively.
(§3) Low passage HFF cells were seeded into 96-well tissue culture plates 24 hours prior to use at a cell concentration of 2.5×10^4 cells per ml in 0.2 ml of DMEM supplemented with 10% fetal calf serum. After 24 hours of incubation at 37° C. in the presence of 5% CO2, medium was removed and the test compounds were diluted two-fold in DMEM in the 96-well tissue culture plate containing monolayer. […] For both HSV-1 and HSV-2 assays, the virus concentration utilized was 1000 pfu/ml and for HCMV, MCMV, and VZV assay 2500 pfu/ml were used. The plates were then incubated at 37° C. in the presence of 5% CO2 for two to three days for HSV-1 and HSV-2, 10 days for VZV and 14 days for HCMV and MCMV. The virus induced cytopathic effect (CPE) was monitored microscopically every day. CPE of HSV-1 was recognized by cell rounding and clumping, while HSV-2 formed large syncytia along with rounding and clumping of cells. […] EC50s were estimated from graphical plots of percent CPE against the concentration of the test compounds. The EC50s for each compound are the mean of EC50s for three or more independent experiments. After three days of incubation period, media was aspirated and the cells stained with a 0.1% crystal violet solution for 30 minutes. The stain was then removed and the plates were rinsed with tap water, air dried and retained.

Series [3] deals with Human laryngeal epithelial carcinoma cells (HEp-2). Nature of the series: Cytotoxicity in HEp-2 cells. It counts as cell-based. As to conditions: HEp-2 cells; conc. per compound (ng/ml). The protocol: (§4) Human laryngeal epithelial carcinoma cells (HEp-2, ATCC, Rockville, Md.) were used for testing of antiviral compounds by cytopathic effect (CPE) inhibition and plaque reduction assay. […] HEp-2, African green monkey kidney cells (Vero, ATCC), HFF and primary rabbit kidney cells were used to determine the cytotoxic effect of compounds of formula I. These cells were propagated in Dulbeco's modified Eagle's medium (DMEM) (Sigma, USA) supplemented with 10% inactivated fetal calf serum (FCS), 25 mM HEPES, 0.2% sodium bicarbonate and 1% penicillin/-streptomycin at 37° C. in the presence of 5% CO2.
(§5) HFF, Vero and HEp-2 cells were seeded in 24-well tissue culture plates at a concentration of […] in DMEM containing 10% FCS and incubated for 24 hours at 37° C. in the presence of 5% CO2. To the monolayer of these cells 0.5, 1.0, 1.5 and 2.0 ml of solution of antiviral compounds were added in the respective wells in duplicate and the cells were then incubated in a 5% CO2 incubator at 37° C. for 72 hours. The cells were observed daily for any change in morphology. […] At the end of this time, the media-drug solution was removed and the cells washed. One ml of 0.25% trypsin was added to each well and incubated until the cells start to come off of the plate. The cells-media mixture was then pipetted up and down several times to resuspend the cells and 0.2 ml of the cell suspension was added to 9.8 ml of trypan blue and cells were counted using hemocytometer. Each sample was counted three times with three replicate wells per sample.

Series [4] has as its system HSV-2 (strain G). Description: Plaque reduction assay, HSV-2 strain G in HEp-2 cells. It is filed as cell-based, herpes simplex virus type 2. As to conditions: conc. per compound (ng/ml) (Acyclovir 250), HSV-2 virus control 47. The protocol: HEp-2 cells were grown to monolayer in 24 well tissue culture plates in DMEM containing 10% fetal calf serum at 37° C. for 24-36 hours in the presence of 5% CO2. The monolayer of HEp-2 cells was infected with 0.1 ml of HSV- 1 (strain F) or HSV-2 (strain G) containing 100 pfu. The viruses were allowed to adsorb for 1 hour at 37° C. in the presence of 5% CO2. All wells containing virus infected cells except virus control were overlaid with 0.9 ml of DMEM and 1 ml of test compound. The virus control and cell control received DMEM only. All microtiter plates were incubated at 37° C. in the presence of 5% CO2 and observed twice daily for 72 hours for viral CPE. At the end of the experiment, plates were stained with 0.1% crystal violet and the results were quantified by counting plaque forming units.

Series [5] concerns HSV-2 strain MS. Nature of the series: CPE inhibition assay, HSV-2 MS in human foreskin fibroblast cells. It counts as cell-based, herpes simplex virus type 2. To be noted: CPE inhibition in HFF cells. The protocol: (§6) Stock solutions of the compounds used for the testing of antiviral activity against HSV-1 and HSV-2 were prepared in distilled water, filtered through 0.2 μm filter (Acrodisco®, Gelman Sciences, USA) and stored at room temperature until used.
as §1, §2, §3

The test system of series [6] is HFF cells. Description: CC50 in HFF cells (Table 3). As to conditions: HFF cells. It counts as cell-based, human. The protocol: (§7) The cells were observed daily for any change in morphology. The rounding and lysis of cells were observed if the compound has cytotoxic effect. At the end of this time, the media-drug solution was removed and the cells washed. […] The cells-media mixture was then pipetted up and down several times to resuspend the cells and 0.2 ml of the cell suspension was added to 9.8 ml of trypan blue and cells were counted using hemocytometer. Each sample was counted three times with three replicate wells per sample.

Series [7] has as its system Epstein-Barr Virus. Description: VCA expression in EBV-infected Daudi cells.
Text: Raji is a Burkitt's lymphoma cell line containing 60 EBV genome/cell, and was the primary cell used for screening antiviral activity against EBV early antigen (EA) expression. […] It spontaneously expresses EBV EA in 0.25-0.5% of the cells. It was used in follow-up studies to confirm activity. These cell lines respond to superinfection by EBV by expressing EA-diffuse component EA (D), EA restricted component EA (R), and viral capsid antigen (VCA). […] The cultures were fed twice weekly and the cell concentration was adjusted to 3×10^5/ml. The cells were kept at 37° C. in humidified atmosphere with 5% CO2.
Cells were infected with the P3HR-1 strain of HBV and the test compound was added after adsorption (45 minutes at 37° C.) and washing of the cell cultures. The cultures were incubated for two days in complete medium to allow viral gene expression. Following the 48 hours of incubation, the numbers of cells of each sample was counted and smears were made. Monoclonal antibodies to the different EA components and VCA were then added to the cells and then incubated and washed. This is followed by a fluorescein conjugated rabbit anti-mouse IgG antibody, and the number of fluorescence cells in the smear were counted. The total number of cells in the cultures positive for EA or VCA were then calculated and compared.
Series [8] concerns Varicella-Zoster Virus. Description: CPE inhibition in stationary cells (visual), VZV in HFF cells. It is filed as cell-based.
Series [9] has as its system HSV-2 strain G. Description: CPE inhibition, HSV-2 strain G in HEp-2 cells. Note: key: +++ = Complete cytopathic effect; ++ = Moderate cytopathic effect; + = Minimum cytopathic effect; − = No cytopathic effect. It counts as cell-based, herpes simplex virus type 2. To be noted: conc. per compound (ng/ml).
Text: as §1, §2, §3

Series [10] relates to Primary human foreskin fibroblast cells (HFF). Description: Cell proliferation assay (cytotoxicity) in HFF cells. It is filed as cell-based. As to conditions: Human foreskin fibroblast cells; reduces growth of uninfected cells by 50%. The protocol: as §4, §5
In series [11] the test system is HSV-1 strain E-377. Description: CPE inhibition assay, HSV-1 E377 in human foreskin fibroblast cells. As to conditions: CPE inhibition in HFF cells. It is filed as cell-based, herpes simplex virus type 1. The protocol:
as §6, §1, §2, §3

In series [12] the test system is Human Cytomegalovirus. Description: CPE inhibition in stationary cells (visual), HCMV in HFF cells. It is filed as cell-based.
Series [13] deals with MEF cells. Nature of the series: CC50 in MEF cells (Table 3). As to conditions: Mouse Cytomegalovirus section of Table 3. It counts as cell-based.
Series [14] has as its system Mouse Cytomegalovirus. Description: CPE inhibition in stationary cells (visual), MCMV in MEF cells. It counts as cell-based. As to conditions: test compounds in DMSO.
Series [15] in a line: CC50 in Daudi cells (Table 3). It counts as cell-based. As to conditions: human; Daudi cells, Epstein-Barr Virus section of Table 3; read-out: CC50.
Method: as §8
The nature of series [16]: CC50 in HFF cells (Table 3). To be noted: human, HFF cells, read-out: CC50. It counts as cell-based, human. The protocol: as §7
The mark [17] stands for this setting: Human Cytomegalovirus section of Table 3.
Setting [18] is: Varicella-Zoster Virus section of Table 3.
Where [19] appears, read: Epstein-Barr Virus, Daudi cells, VCA, test compounds in DMSO.

Converted amounts (≈) assume the structure as drawn. Read-outs that look alike come from different tables or passages of the source. Some results are limits rather than exact numbers.

As for `C[C@@H]1O[C@@H](O[C@H]2[C@H](O[C@H]3CC[C@@]4(C)[C@@H](CC[C@]5(C)[C@@H]4CC=C4[C@@H]6CC(C)(C)CC[C@]6(C(=O)O)CC[C@]45C)[C@]3(C)CO)OC[C@H](O)[C@@H]2O)[C@H](O)[C@H](O)[C@H]1O` [Hederine hydrate, α-hederin hydrate], the CC50 in [1] was 0.0038 µg/mL; in [6] (setting [17]), 0.01 µg/mL; in [6] (setting [18]), 0.0115 µg/mL; in [10] it was above 0.25 µg/mL. Besides, the “Cytopathic Effect (CPE) Inhibition HSV-1 Strain F” value in series [2] is “++”. In addition, the “Cell Cytotoxicity” value in [3] is on record as “−”. For the same compound, in series [4], the “Plaque Reduction Assay Average pfu/10^5 Cells HSV-2 Strain G” value is on record as 38 pfu/10^5 Cells. Further, in series [5], the “EC50 HSV-2 MS” value is above 0.25 µg/mL. The concentration giving a half-maximal response (EC50) in series [7] (setting [19]) is 0.0015 µg/mL; in series [8] (test compounds in DMSO) it was above 0.004 µg/mL; in series [12] (test compounds in DMSO), above 0.004 µg/mL. Besides, the “Cytopathic Effect (CPE) Inhibition HSV-2 Strain G” value in series [9] is listed as “++”. Moreover, the “EC50 HSV-1 E377” value in series [11] was above 0.25 µg/mL.

In the case of Betulin succinate, the CC50 in series [1] was above 0.05 µg/mL; in series [13] it was 0.014 µg/mL; in series [6] (setting [17]), 0.0969 µg/mL; in series [6] (setting [18]), 0.0688 µg/mL. Also, the concentration for a half-maximal effect (EC50) was above 0.05 µg/mL in [7] (setting [19]), above 0.02 µg/mL in [8] (test compounds in DMSO), above 0.004 µg/mL in [14] and 0.0039 µg/mL in series [12] (test compounds in DMSO).

`C[C@H]1[C@H](C)CC[C@]2(C(=O)O)CC[C@]3(C)C(=CC[C@@H]4[C@@]5(C)CC[C@H](O)C(C)(C)[C@@H]5CC[C@]43C)[C@H]12` [Ursolic acid]: the cytotoxic concentration (CC50) in series [15] was above 0.05 µg/mL. Also, the “Cytopathic Effect (CPE) Inhibition HSV-1 Strain F” value in [2] is “++”. Also, the “Cell Cytotoxicity” value in series [3] was “−”. Also, the “Plaque Reduction Assay Average pfu/10^5 Cells HSV-2 Strain G” value in series [4] is 33 pfu/10^5 Cells. The results for the 50% cytotoxic concentration (CC50) at 72 h in [16] (setting [17]) and in series [16] (setting [18]) were above 0.1 µg/mL and 0.0029 µg/mL (≈ 0.00635 µM), respectively. Besides, the 50% effective concentration (EC50) was 0.0485 µg/mL (≈ 0.106 µM) in series [7] (human gammaherpesvirus 4, Daudi); above 0.0008 µg/mL in [8] (Human alphaherpesvirus 3, test compounds in DMSO, read-out: EC50); above 0.1 µg/mL in [12] (Human betaherpesvirus 5, test compounds in DMSO, read-out: EC50). Further, the “Cytopathic Effect (CPE) Inhibition HSV-2 Strain G” value in [9] is given as “++”.

Broadly, the CC50 is the concentration giving 50% cytotoxicity. As usually defined, the EC50 is the concentration needed to bring the measured effect to its halfway point.
